# Test results from patent publication EP2687213B1, “Solid forms comprising (+)-2-[1-(3-ethoxy-4-methoxyphenyl)-2-methylsulfonylethyl]-4-acetylaminoisoindoline-1,3-dione, compositions thereof, and uses thereof” (CELGENE CORPORATION, priority 2008, dated 2009).
# What was measured:
# [1] = biological target: PDE5 from human platelets (Homo sapiens, UniProt O76074); experiment: PDE5 enzyme assay; assay type: biochemical; conditions: from PDE inhibition data of Table 1
# [2] = system: subjects with moderate to severe plaque-type psoriasis; experiment: Phase 2 randomized double-blind placebo-controlled study in moderate to severe plaque-type psoriasis; assay type: in vivo, human
# Protocol: This phase 2, multicenter, randomized, double-blind, placebo-controlled, parallel-group, dose-comparison study evaluated the efficacy and safety of Compound A in subjects with moderate to severe plaque-type psoriasis who were candidates for systemic therapy.
# This study included a 12-week treatment phase followed by a 4-week observational follow-up phase. A total of 260 subjects were randomized to receive Compound A 20 mg BID, Compound A 20 mg QD, or placebo for 12 weeks. The primary endpoint for this study was the proportion of subjects treated with Compound A who achieved a 75% reduction in Psoriasis Area and Severity Index score ("PASI-75") at week 12/last treatment in reference to the baseline visit. Last treatment is defined as the last PASI assessment completed during the 12-week treatment phase.
# [3] = system: patients with severe plaque-type psoriasis
# [4] = system: LPS-induced pulmonary neutrophilia; experiment: LPS-induced lung neutrophilia conscious ferret model; assay type: in vivo; conditions: threshold emetic dose divided by ED50 for pulmonary neutrophilia
# Source text: The conscious ferret model has been used to investigate anti-inflammatory, emetic and behavioral effects of PDE4 inhibitors when administered by the oral (p.o.) route. From these experiments, a therapeutic index (TI) for each PDE4 inhibitor may be determined. The TI has been calculated by dividing the threshold dose for causing emetic episodes and behavioral changes by the anti-inflammatory dose (dose that causes 50% inhibition of the LPS-induced neutrophilia). […]
# Thirty minutes after p.o. dosing with compound or vehicle control, the ferrets were placed into sealed Perspex containers and exposed to an aerosol of LPS (100 µg/ml) for 10 minutes. […] Observation continued for a period of at least 2.5 hours post p.o. dosing and emetic episodes and behavioral changes were recorded. […]
# The bronchoalveolar lavage (BAL) samples were centrifuged at 1,500 rpm for 5 minutes. […] From this, the total number of neutrophils in the BAL was determined.
# • 1. % Inhibition of LPS-induced pulmonary neutrophilia. • 2. Emetic episodes - the number of vomits and retches were counted. • 3. […] Any behavioral changes were semi-quantified by applying a severity rating (mild, moderate or severe). • 4. The TI was calculated as the highest dose found to not cause emetic episodes divided by the lowest dose found to inhibit pulmonary neutrophilia by 50% or more.
# bovine PDE1 = experiment: PDE1 enzyme assay; assay type: biochemical; conditions: from PDE inhibition data of Table 1
# [5] = biological target: PDE3 from human platelets (Homo sapiens, UniProt Q14432); experiment: PDE3 enzyme assay; assay type: biochemical; conditions: from PDE inhibition data of Table 1
# [6] = 20 mg orally daily, number of patients
# [7] = responders (≥ 20% epidermal thickness reduction), 8 patients, Day 29
# PDE3 from human platelets, sequence (Q14432 whole entry): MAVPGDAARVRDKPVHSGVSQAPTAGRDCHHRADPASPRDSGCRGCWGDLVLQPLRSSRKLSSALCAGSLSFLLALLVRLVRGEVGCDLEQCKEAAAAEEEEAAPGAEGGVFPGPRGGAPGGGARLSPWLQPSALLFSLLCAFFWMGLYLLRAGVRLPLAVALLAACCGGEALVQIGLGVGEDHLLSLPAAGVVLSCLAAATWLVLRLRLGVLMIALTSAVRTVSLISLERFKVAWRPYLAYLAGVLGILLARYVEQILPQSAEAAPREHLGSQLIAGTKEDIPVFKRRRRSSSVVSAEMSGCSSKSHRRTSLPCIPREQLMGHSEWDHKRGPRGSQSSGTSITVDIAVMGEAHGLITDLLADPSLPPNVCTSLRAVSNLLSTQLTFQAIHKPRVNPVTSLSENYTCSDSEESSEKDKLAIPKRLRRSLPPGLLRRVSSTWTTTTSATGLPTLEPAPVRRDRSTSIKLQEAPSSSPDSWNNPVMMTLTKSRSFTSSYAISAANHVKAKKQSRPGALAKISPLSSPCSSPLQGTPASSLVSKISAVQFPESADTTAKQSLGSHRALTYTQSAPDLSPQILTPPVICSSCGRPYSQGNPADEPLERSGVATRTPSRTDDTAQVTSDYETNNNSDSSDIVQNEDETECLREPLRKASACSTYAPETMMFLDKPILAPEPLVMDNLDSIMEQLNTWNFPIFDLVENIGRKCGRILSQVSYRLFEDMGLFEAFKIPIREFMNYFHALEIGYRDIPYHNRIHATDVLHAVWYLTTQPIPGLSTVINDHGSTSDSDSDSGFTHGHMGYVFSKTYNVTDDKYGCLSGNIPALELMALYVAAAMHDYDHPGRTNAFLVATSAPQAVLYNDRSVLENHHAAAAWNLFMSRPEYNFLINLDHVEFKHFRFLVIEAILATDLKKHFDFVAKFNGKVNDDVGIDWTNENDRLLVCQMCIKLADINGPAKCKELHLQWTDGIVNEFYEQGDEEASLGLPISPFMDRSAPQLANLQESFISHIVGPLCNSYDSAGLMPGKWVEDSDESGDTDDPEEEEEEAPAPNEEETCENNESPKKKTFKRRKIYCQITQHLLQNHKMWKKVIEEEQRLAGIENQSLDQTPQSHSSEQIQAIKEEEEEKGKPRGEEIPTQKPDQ
compound,measurement,setting,value
"CCOc1cc(C(CS(C)(=O)=O)N2C(=O)c3cccc(NC(C)=O)c3C2=O)ccc1OC (single isomer, unassigned; (+)) [Compound A, (+)-2-[1-(3-ethoxy-4-methoxyphenyl)-2-methylsulfonylethyl]-4-acetylaminoisoindoline-1,3-dione]",PDE Specificity Ratio PDE4/PDE5,[1],>30000 fold
same,psoriasis flare during the observational follow-up period,"[2]; 20 mg BID group, 4-week follow-up",No subjects
same,study drug-related serious adverse events,"[2]; 20 mg BID or 20 mg QD, 12 weeks",No study drug-related serious adverse events were reported
same,tolerability and safety (overall conclusion),[2]; 12 weeks of treatment,well tolerated and safe
same,patients with abnormal HLA-DR that had normal HLA-DR at Day 29,[3]; [6],Two
same,patients with abnormal ICAM-1 at baseline that had normal ICAM-1 at Day 29,[3]; [6],Three
same,patients with abnormal K16 at baseline that had normal K16 at Day 29,[3]; [6],one
same,patients with abnormal fillagrin at baseline that had normal fillagrin at Day 29,[3]; [6],three
same,safety (overall conclusion),[3]; 20 mg p.o. QD for 29 days,safe
same,"Percentage Reduction of Key Inflammatory Markers at Day 29: CD11c, Dermis","[3]; Responder, signed change",-18.50%
same,"Percentage Reduction of Key Inflammatory Markers at Day 29: CD11c, Epidermis","[3]; Responder, signed change",-40.16%
same,"Percentage Reduction of Key Inflammatory Markers at Day 29: CD83+, Dermis","[3]; Responder, signed change",-25.86%
same,"Percentage Reduction of Key Inflammatory Markers at Day 29: CD83+, Epidermis","[3]; Responder, signed change",-32.50%
same,"Percentage Reduction of Key Inflammatory Markers at Day 29: T-cells, Dermis","[3]; Responder, signed change",-28.79%
same,"Percentage Reduction of Key Inflammatory Markers at Day 29: T-cells, Epidermis","[3]; Responder, signed change",-42.56%
same,decrease of dermal T-cells,[3]; [7],28.79%
same,decrease of epidermal T-cells,[3]; [7],42.56%
same,CD11c cells reduced in the dermis,"[3]; responders, Day 29",18.50%
same,CD11c cells reduced in the epidermis,"[3]; responders, Day 29",40.16%
same,Mean reduction from baseline in dermal CD83+ cells,"[3]; responders, Day 29",25.86%
same,Mean reduction from baseline in epidermal CD83+ cells,"[3]; responders, Day 29",32.50%
same,deaths,[3]; treatment and follow-up phases,No deaths were reported
same,Therapeutic index,[4],12
same,PDE Specificity Ratio PDE4/PDE1,bovine PDE1,>500 fold
same,PDE Specificity Ratio PDE4/PDE3,[5],>1200 fold
